# Test results taken from article PMC10830462, “Molecular insights into the dynamic modulation of bacterial ClpP function and oligomerization by peptidomimetic boronate compounds” (Scientific Reports, 2024).
# Experiments:
# Format in all cases: binding
# [1] = target: T1, SeClpP (ClpP from Staphylococcus epidermidis) (Staphylococcus epidermidis, UniProt Q8CTE0); assay: nanoDSF thermal shift; settings: 10 µM SeClpP, pH 7.5, 100 mM KCl, 2 mM DTT, no glycerol; covalent (reversible boronate)
# T1 construct: codon-optimised ORF in pET28a(+), C-terminal His-tag, expressed in E. coli BL21(DE3) Star; homotetradecamer (about 300 kDa) of two stacked heptameric rings, heptamers also present without glycerol; catalytic triad Ser98, His123, Asp172
# T1 sequence (Q8CTE0 1-194): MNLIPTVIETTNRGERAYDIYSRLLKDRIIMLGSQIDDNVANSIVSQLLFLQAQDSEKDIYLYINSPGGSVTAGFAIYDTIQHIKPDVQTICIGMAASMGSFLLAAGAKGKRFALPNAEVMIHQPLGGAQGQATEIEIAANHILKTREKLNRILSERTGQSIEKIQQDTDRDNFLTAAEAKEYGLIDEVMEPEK
# [2] = target: T1, SeClpP (ClpP from Staphylococcus epidermidis); assay: isothermal titration calorimetry; settings: read-out: K (converted)
# [3] = target: T1, SeClpP (ClpP from Staphylococcus epidermidis); assay: X-ray crystal structure, soaked crystals, […] Å; settings: catalytic site; covalent (boron to Ser98, reversible); crystals soaked with 10 mM ixazomib
smiles,measurement,setting,value
CC(C)C[C@H](NC(=O)CNC(=O)c1cc(Cl)ccc1Cl)B(O)O [ixazomib],melting temperature,[1],"SeClpP bound to the peptidomimetic boronate, and therefore more thermostable"
same,Kd,[2],5.38 µM
same,"X-ray crystal structure, soaked crystals, 2.33 Å",[3],the boron atom of ixazomib is covalently bound to Ser98
